Experiment: xn = mol fraction of the nth substance listed
Settings: 101 kPa, Liquid; for electrical conductivity: Conductivity Meter Jenco 3107; for viscosity: Cone and plate viscometry; for mass density: Vibrating tube method

CC1COC(=O)O1 (centres undefined) [4-methyl-1,3-dioxolan-2-one] + CCCC[n+]1ccn(C)c1.O=S(=O)([N-]S(=O)(=O)C(F)(F)F)C(F)(F)F
Settings | electrical conductivity [S/m] | mass density [kg/m3] | viscosity [mPa·s]
293.15 K, x2 = 0 | – | – | 2.86
293.15 K, x2 = 0.0146 | – | 1216.01 | –
293.15 K, x2 = 0.0296 | – | 1226.83 | –
293.15 K, x2 = 0.0453 | – | 1237.53 | –
293.15 K, x2 = 0.0502 | 0.792 | – | –
293.15 K, x2 = 0.0616 | – | 1247.91 | –
293.15 K, x2 = 0.0732 | – | 1254.92 | –
293.15 K, x2 = 0.0997 | – | 1269.69 | –
293.15 K, x2 = 0.1 | – | – | 4.74
293.15 K, x2 = 0.1004 | 0.92 | – | –
293.15 K, x2 = 0.2001 | 1.08 | – | –
293.15 K, x2 = 0.2002 | – | – | 7.21
293.15 K, x2 = 0.2004 | – | 1314.48 | –
293.15 K, x2 = 0.3002 | 0.938 | – | –
293.15 K, x2 = 0.3007 | – | – | 10.74
293.15 K, x2 = 0.3081 | – | 1348.61 | –
293.15 K, x2 = 0.3998 | – | – | 14.73
293.15 K, x2 = 0.4004 | – | 1370.63 | –
293.15 K, x2 = 0.4005 | 0.814 | – | –
293.15 K, x2 = 0.5004 | – | – | 20.17
293.15 K, x2 = 0.5007 | 0.752 | – | –
293.15 K, x2 = 0.5021 | – | 1389.4 | –
293.15 K, x2 = 0.5839 | – | 1401.58 | –
293.15 K, x2 = 0.6002 | – | – | 26.37
293.15 K, x2 = 0.6003 | 0.669 | – | –
293.15 K, x2 = 0.6902 | – | 1414.42 | –
293.15 K, x2 = 0.6979 | – | – | 33.56
293.15 K, x2 = 0.6989 | 0.578 | – | –
293.15 K, x2 = 0.7989 | – | 1424.99 | –
293.15 K, x2 = 0.8001 | 0.497 | – | –
293.15 K, x2 = 0.8015 | – | – | 42.09
293.15 K, x2 = 0.8959 | 0.422 | – | 50.34
293.15 K, x2 = 0.898 | – | 1432.81 | –
298.15 K, x2 = 0 | – | – | 2.65
298.15 K, x2 = 0.0146 | – | 1210.26 | –
298.15 K, x2 = 0.0296 | – | 1221.14 | –
298.15 K, x2 = 0.0453 | – | 1231.8 | –
298.15 K, x2 = 0.0502 | 0.899 | – | –
298.15 K, x2 = 0.0616 | – | 1242.22 | –
298.15 K, x2 = 0.0732 | – | 1249.22 | –
298.15 K, x2 = 0.0997 | – | 1264.08 | –
298.15 K, x2 = 0.1 | – | – | 4.29
298.15 K, x2 = 0.1004 | 1.02 | – | –
298.15 K, x2 = 0.2001 | 1.21 | – | –
298.15 K, x2 = 0.2002 | – | – | 6.43
298.15 K, x2 = 0.2004 | – | 1308.99 | –
298.15 K, x2 = 0.3002 | 1.06 | – | –
298.15 K, x2 = 0.3007 | – | – | 9.27
298.15 K, x2 = 0.3081 | – | 1343.32 | –
298.15 K, x2 = 0.3998 | – | – | 12.6
298.15 K, x2 = 0.4004 | – | 1365.43 | –
298.15 K, x2 = 0.4005 | 0.924 | – | –
298.15 K, x2 = 0.5004 | – | – | 17.01
298.15 K, x2 = 0.5007 | 0.855 | – | –
298.15 K, x2 = 0.5021 | – | 1384.34 | –
298.15 K, x2 = 0.5839 | – | 1396.54 | –
298.15 K, x2 = 0.6002 | – | – | 21.71
298.15 K, x2 = 0.6003 | 0.761 | – | –
298.15 K, x2 = 0.6902 | – | 1409.46 | –
298.15 K, x2 = 0.6979 | – | – | 27.64
298.15 K, x2 = 0.6989 | 0.667 | – | –
298.15 K, x2 = 0.7989 | – | 1420.01 | –
298.15 K, x2 = 0.8001 | 0.581 | – | –
298.15 K, x2 = 0.8015 | – | – | 34.76
298.15 K, x2 = 0.8959 | 0.49 | – | 40.95
298.15 K, x2 = 0.898 | – | 1427.78 | –
303.15 K, x2 = 0 | – | – | 2.44
303.15 K, x2 = 0.0146 | – | 1205.11 | –
303.15 K, x2 = 0.0296 | – | 1216.01 | –
303.15 K, x2 = 0.0453 | – | 1226.7 | –
303.15 K, x2 = 0.0502 | 0.963 | – | –
303.15 K, x2 = 0.0616 | – | 1237.2 | –
303.15 K, x2 = 0.0732 | – | 1244.2 | –
303.15 K, x2 = 0.0997 | – | 1259.1 | –
303.15 K, x2 = 0.1 | – | – | 3.84
303.15 K, x2 = 0.1004 | 1.16 | – | –
303.15 K, x2 = 0.2001 | 1.35 | – | –
303.15 K, x2 = 0.2002 | – | – | 5.81
303.15 K, x2 = 0.2004 | – | 1303.96 | –
303.15 K, x2 = 0.3002 | 1.21 | – | –
303.15 K, x2 = 0.3007 | – | – | 8.07
303.15 K, x2 = 0.3081 | – | 1338.4 | –
303.15 K, x2 = 0.3998 | – | – | 10.8
303.15 K, x2 = 0.4004 | – | 1360.5 | –
303.15 K, x2 = 0.4005 | 1.07 | – | –
303.15 K, x2 = 0.5004 | – | – | 14.41
303.15 K, x2 = 0.5007 | 0.963 | – | –
303.15 K, x2 = 0.5021 | – | 1379.5 | –
303.15 K, x2 = 0.5839 | – | 1391.7 | –
303.15 K, x2 = 0.6002 | – | – | 18.4
303.15 K, x2 = 0.6003 | 0.86 | – | –
303.15 K, x2 = 0.6902 | – | 1404.6 | –
303.15 K, x2 = 0.6979 | – | – | 22.9
303.15 K, x2 = 0.6989 | 0.764 | – | –
303.15 K, x2 = 0.7989 | – | 1415.1 | –
303.15 K, x2 = 0.8001 | 0.665 | – | –
303.15 K, x2 = 0.8015 | – | – | 28.81
303.15 K, x2 = 0.8959 | 0.563 | – | 33.59
303.15 K, x2 = 0.898 | – | 1422.88 | –
308.15 K, x2 = 0 | – | – | 2.23
308.15 K, x2 = 0.0146 | – | 1199.79 | –
308.15 K, x2 = 0.0296 | – | 1210.69 | –
308.15 K, x2 = 0.0453 | – | 1221.41 | –
308.15 K, x2 = 0.0502 | 1.05 | – | –
308.15 K, x2 = 0.0616 | – | 1231.88 | –
308.15 K, x2 = 0.0732 | – | 1238.89 | –
308.15 K, x2 = 0.0997 | – | 1253.78 | –
308.15 K, x2 = 0.1 | – | – | 3.51
308.15 K, x2 = 0.1004 | 1.3 | – | –
308.15 K, x2 = 0.2001 | 1.51 | – | –
308.15 K, x2 = 0.2002 | – | – | 5.1
308.15 K, x2 = 0.2004 | – | 1298.88 | –
308.15 K, x2 = 0.3002 | 1.36 | – | –
308.15 K, x2 = 0.3007 | – | – | 7.11
308.15 K, x2 = 0.3081 | – | 1333.39 | –
308.15 K, x2 = 0.3998 | – | – | 9.42
308.15 K, x2 = 0.4004 | – | 1355.48 | –
308.15 K, x2 = 0.4005 | 1.22 | – | –
308.15 K, x2 = 0.5004 | – | – | 12.36
308.15 K, x2 = 0.5007 | 1.1 | – | –
308.15 K, x2 = 0.5021 | – | 1374.5 | –
308.15 K, x2 = 0.5839 | – | 1386.81 | –
308.15 K, x2 = 0.6002 | – | – | 15.75
308.15 K, x2 = 0.6003 | 0.972 | – | –
308.15 K, x2 = 0.6902 | – | 1399.67 | –
308.15 K, x2 = 0.6979 | – | – | 19.44
308.15 K, x2 = 0.6989 | 0.859 | – | –
308.15 K, x2 = 0.8001 | 0.755 | – | –
308.15 K, x2 = 0.8015 | – | – | 24.1
308.15 K, x2 = 0.8959 | 0.642 | – | 27.95
